Experimental data as given in patent US7776907B2, “Methods for the treatment and management of macular degeneration using cyclopropyl-N-{2-[(1S)-1-(3-ethoxy-4-methoxyphenyl)-2-(methylsulfonyl)ethyl]-3-oxoisoindoline-4-yl}carboxamide” (Celgene Corporation, priority 2002, dated 2010).

Experiments:
[1] = system: patients with macular degeneration; assay: Clinical study in patients with macular degeneration, adjuvant to photodynamic therapy with verteporfin; format: in vivo, human; conditions: about 20 mg/day as adjuvant to verteporfin photodynamic therapy for 20 weeks
Method: Selective cytokine inhibitory drugs of the invention are administered in an amount of about 20 to about 1,200 mg per day to patients with macular degeneration. In a specific embodiment, clinical studies are performed with forty patients with macular degeneration, who are divided into two groups. The first group receives conventional treatment for closing the leaking choroidal vessels (characteristic of this disease) by photodynamic therapy with verteporfin. Ophthalmol 1999 (117): 1329-1345. The second group receives the same conventional therapy with verteporfin and (+)-2-[1-(3-ethoxy-4 methoxy-phenyl)-2-methylsulfonylethyl]-4 acetylaminoisoindoline 1,3-dione in an amount of about 20 mg/day as an adjuvant for 20 weeks.
However, the first group without (+)-2-[1-(3-ethoxy-4 methoxyphenyl)-2-methylsulfonylethyl]-4 acetylaminoisoindoline 1,3-dione experiences progressive reperfusion of the ablated vessels several weeks after treatment. Progressive visual loss follows which requires the photodynamic therapy to be repeated.

TNF-α production = assay: In vitro pharmacology studies: inhibition of TNF-α production following LPS-stimulation of human PBMC and human whole blood; format: cell-based; conditions: compared with thalidomide
Text: One of the biological effects typically exerted by selective cytokine inhibitory drugs is the reduction of synthesis of TNF-α. Specific selective cytokine inhibitory drugs enhance the degradation of TNF-α mRNA. TNF-α may play a pathological role in macular degeneration.
In a specific embodiment, the pharmacological properties of 3-(3,4-dimethoxy-phenyl)-3-(1-oxo-1,3-dihydro-isoindol-2-yl)-propionamide are characterized in in vitro studies. Studies examine the effects of the compound on the production of various cytokines. Inhibition of TNF-α production following LPS-stimulation of human PBMC and human whole blood by the compound is investigated in vitro. […] The pharmacological effects of 3-(3,4-dimethoxy-phenyl)-3-(1-oxo-1,3-dihydro-isoindol-2-yl)-propionamide may derive from its action as an inhibitor of the generation of inflammatory cytokines.

laser-induced CNVM = conditions: intravitreal injection, monkeys; cited from earlier work
patients with MD = conditions: intravitreal injection, one-year period, randomized trial; cited from earlier work
MD = conditions: cited from earlier work
[2] = animal models; cited from earlier work

## CCOc1cc(C(CS(C)(=O)=O)N2C(=O)c3cccc(NC(C)=O)c3C2=O)ccc1OC (single isomer, unassigned; (+)) [(+)-2-[1-(3-ethoxy-4 methoxyphenyl)-2-methylsulfonylethyl]-4 acetylaminoisoindoline 1,3-dione]
[1]
  effect on neovascular cascade / duration of effects of photodynamic therapy: neovascular cascade is sufficiently hindered

## COc1ccc(C(CC(N)=O)N2Cc3ccccc3C2=O)cc1OC (stereo not shown) [3-(3,4-Dimethoxy-phenyl)-3-(1-oxo-1,3-dihydro-isoindol-2-yl)-propionamide]
TNF-α production
  pharmacological activity profile, potency relative to thalidomide: five to fifty times more potent than thalidomide

## C[C@]12C=CC(=O)C=C1CC[C@H]1[C@@H]3C[C@@H](O)[C@](O)(C(=O)CO)[C@@]3(C)C[C@H](O)[C@@]12F [triamcinolone]
laser-induced CNVM
  growth of laser-induced CNVM: inhibits the growth of laser-induced CNVM
Patients with MD
  prevention of severe visual loss: fails to prevent severe visual loss

## interferon-α
MD; clinical trial, Arch. Ophthalmol. 115:865-72 (1997)
  efficacy at treating MD: ineffective at treating MD
MD; human, in vivo
  adverse effects: high rate of adverse effects

## verteporfin
[2]
  accumulation in tissue: also accumulates in the retina
